Values quoted from earlier work, collected in patent US20080021074A1, “Pharmaceutical Compositions and Related Methods of Treatment” (QUESTCOR PHARMACEUTICALS, INC., priority 2006, published 2008).
Where a name gives a salt, the structure may show the parent alone.

Experiments:
CYP1A2 [1] = molecular target: CYP1A2 (Homo sapiens, UniProt P05177); details: in vitro
spasticity = details: clinical studies
[2] = tizanidine and baclofen combined
CYP3A4 = details: primary human hepatocyte cultures, concentration-dependent
mice = details: single administration
CYP2C19 = CYP2C19 (Homo sapiens, UniProt P33261)
CYP2B6 = details: primary human hepatocyte cultures, concentration-dependent
monkeys = details: single administration
CYP1A2 [3] = details: primary human hepatocyte cultures, concentration-dependent

Sequence of CYP2C19 (P33261 whole entry): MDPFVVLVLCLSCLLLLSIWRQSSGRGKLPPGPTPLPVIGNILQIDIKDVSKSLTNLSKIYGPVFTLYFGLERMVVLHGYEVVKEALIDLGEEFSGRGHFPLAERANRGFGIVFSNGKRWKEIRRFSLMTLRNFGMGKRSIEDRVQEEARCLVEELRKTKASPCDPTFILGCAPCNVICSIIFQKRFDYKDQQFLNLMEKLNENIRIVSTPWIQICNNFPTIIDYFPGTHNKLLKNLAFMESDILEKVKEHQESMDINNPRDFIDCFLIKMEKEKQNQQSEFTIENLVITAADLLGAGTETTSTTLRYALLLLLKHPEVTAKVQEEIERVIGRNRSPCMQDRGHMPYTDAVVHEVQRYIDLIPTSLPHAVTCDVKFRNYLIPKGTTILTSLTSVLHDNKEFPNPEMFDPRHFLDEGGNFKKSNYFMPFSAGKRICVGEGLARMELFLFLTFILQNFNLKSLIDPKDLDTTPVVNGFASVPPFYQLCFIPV
Sequence of CYP1A2 (Homo sapiens, UniProt P05177) (P05177 whole entry): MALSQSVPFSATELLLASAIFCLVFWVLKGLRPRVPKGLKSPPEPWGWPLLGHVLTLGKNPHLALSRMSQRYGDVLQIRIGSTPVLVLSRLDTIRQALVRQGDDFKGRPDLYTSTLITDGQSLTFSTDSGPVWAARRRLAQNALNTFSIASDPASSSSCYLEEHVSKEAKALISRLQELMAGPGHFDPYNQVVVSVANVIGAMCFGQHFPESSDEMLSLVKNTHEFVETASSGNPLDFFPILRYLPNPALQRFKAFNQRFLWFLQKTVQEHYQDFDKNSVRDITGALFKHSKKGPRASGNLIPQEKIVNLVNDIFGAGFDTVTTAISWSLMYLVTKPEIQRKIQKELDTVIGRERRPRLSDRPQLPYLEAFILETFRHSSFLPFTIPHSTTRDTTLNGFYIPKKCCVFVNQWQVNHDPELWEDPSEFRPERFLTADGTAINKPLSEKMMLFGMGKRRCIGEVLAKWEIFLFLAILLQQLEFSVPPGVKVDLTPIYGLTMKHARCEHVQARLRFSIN

Clc1ccc2nsnc2c1NC1=NCCN1 [Tizanidine, 5-chloro-4-(2-imidazolin-2-ylamino)-2,1,3-benzothiodiazole hydrochloride]
metabolizing enzyme (CYP1A2 [1]): metabolized by CYP1A2
antispastic effect compared with diazepam and baclofen (spasticity): as effective as other antispastic agents
tolerability compared with diazepam and baclofen (spasticity; especially incidence of debilitating muscle weakness): more favorable tolerability profile
pharmacokinetic interaction [2]: without significant pharmacokinetic interaction

NC(=O)C[S+]([O-])C(c1ccccc1)c1ccccc1 (stereo not drawn) [Modafinil, 2-[(diphenylmethyl)sulfinyl]acetamide]
induction of CYP3A4 (CYP3A4): slightly induce
locomotor activity (mice): increased locomotor activity
inhibition of CYP2C19 (CYP2C19): reversible inhibitors
induction of CYP2B6 (CYP2B6): slightly induce
nocturnal activity (monkeys): increased nocturnal activity
induction of CYP1A2 (CYP1A2 [3]): slightly induce

NCC(CC(=O)O)c1ccc(Cl)cc1 (stereo not drawn) [baclofen, 4-amino-3-(4-chlorophenyl)-butanoic acid]
pharmacokinetic interaction [2]: without significant pharmacokinetic interaction

NC(=O)CS(=O)(=O)C(c1ccccc1)c1ccccc1 [modafinil sulfone]
inhibition of CYP2C19 (CYP2C19): reversible inhibitors
